Key:
[1] = system: phosphorylated GSK3 (Ser9) in MCF7 cells; test: Cellular pGSK3 assay (pGSK3-ELISA); type: cell-based; details: Homo sapiens, 48 h, read-out: GSK3 inhibition (pGSK3-ELISA): IC50
Method: In order to study the cellular activity of the compounds according to the invention, an ELISA-based assay has been established for the phosphorylated glycogen synthetase kinase 3, GSK3. The assay is based on a solid phase sandwich ELISA that detects endogenous levels of the phosphorylated GSK3 (BioSource International, Inc.; Catalog #KHO0461). A phospho-GSK3 (Ser9) antibody has been coated onto the microwells. After incubation with cell lysates, the coated antibody captures the phosphorylated GSK3 protein. Following extensive washing, GSK3 polyclonal antibody is added to detect the captured phospho-GSK3 protein. HRP-linked […] antibody (anti-rabbit IgG-HRP) is then used to recognize the bound detection antibody. […]
Cells are harvested and lysed with brief vortexing in cell extraction buffer (10 mM Tris, pH 7.4, 100 mM NaCl, 1 mM EDTA, 1 mM EGTA, 1 mM NaF, 20 mM Na4P2O7, 2 mM Na3VO4, 1% Triton X-100, 10% glycerol, 0.1% SDS, 0.5% deoxycholate, 1 mM PMSF). […] The absorbance is measured at 450 nm (Wallac Victor2; Perkin Elmer, USA) within 30 minutes after adding Stop solution. The analysis of the data is performed using a statistical program (Microsoft Excel, USA) and the inhibition of pGSK3 phosphorylation is determined.

[2] = target: T1, Akt1 (full-length Akt1, active) (Homo sapiens, UniProt P31749); test: Biochemical Akt1 (active) assay (full-length Akt1), flashplate, Crosstide; details: Crosstide substrate, 100 nM ATP, 60 minutes at 30° C.; read-out: Akt1 inhibition (full-length Akt1, active): IC50
T1 construct: recombinant full-length human Akt1, containing N-terminal His6 tag; His6 (N); GST (alternative statement of the assay paragraph) (N); purchased Upstate, UK #14-276; host or cells: baculovirus infected Sf21 insect cells
T1 sequence (P31749 whole entry): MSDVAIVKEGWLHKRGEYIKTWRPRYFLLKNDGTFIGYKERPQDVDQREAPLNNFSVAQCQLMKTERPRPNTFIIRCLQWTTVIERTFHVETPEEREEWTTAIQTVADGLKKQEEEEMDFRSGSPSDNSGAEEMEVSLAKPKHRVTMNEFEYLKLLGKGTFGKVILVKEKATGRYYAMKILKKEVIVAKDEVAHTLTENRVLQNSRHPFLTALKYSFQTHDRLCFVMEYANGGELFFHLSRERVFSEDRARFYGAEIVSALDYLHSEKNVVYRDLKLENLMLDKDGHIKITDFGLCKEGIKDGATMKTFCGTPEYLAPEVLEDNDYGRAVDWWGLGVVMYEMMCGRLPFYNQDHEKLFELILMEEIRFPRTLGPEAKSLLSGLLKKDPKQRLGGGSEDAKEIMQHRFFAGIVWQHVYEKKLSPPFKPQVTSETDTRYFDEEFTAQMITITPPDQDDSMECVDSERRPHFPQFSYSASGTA
From the text: For the biochemical Akt1 assay recombinant full-length human Akt1, containing N-terminal His6 tag was cloned and expressed in baculovirus infected Sf21 insect cells. Akt1 is activated with GST-MAPKAP-K2 and PDK1, and repurified on Ni2+/NTA-agrose and glutathioneagarose (Upstate, UK; #14-276).
In order to study the inhibition of Akt1 (full-length version) according to the invention, a flashplate-based assay has been developed.
The full-length Akt1 assay is a biochemical assay using Akt1 N-terminally fused to GST and co-expressed with PDK1 in insect cells. The Akt1 assay is run in 96 well plates by incubating 500 ng/well GST-Akt1, 1 μM Crosstide (N-terminally biotinylated synthetic peptide (KGSGSGRPRTSSFAEG) Upstate, #12-385) as substrate, 10 μl of test compound (test compounds were dissolved as 10 mM solutions in dimethylsulfoxide (DMSO) and subsequently diluted) and 100 nM ATP (including ^33P-ATP) in 100 μl of reaction buffer (50 mM HEPES, pH7.5; 3 mM MgCl2; 3 mM MnCl2; 3 μM Na-Orthovanadat; 1 mM DTT; 1 μg/ml PEG8000) for 60 minutes at 30° C. in 96 well microtiter plates. The reactions are terminated by adding 100 μl stopping buffer (5M NaCl, 35 mM EDTA pH 8,0) for 5 minutes. 190 μl of the reaction mixture are transferred into streptavidin-coated Flashplates (Perkin Elmer, #SMP-103) and incubated for further 30 minutes at room temperature. The plates are washed 3 times by using washing buffer (0.9% NaCl). Relying on the incorporation of ^33P into the peptide substrate crosstide, the detection is based on the specific binding of the biotinylated peptide to the streptavidin-coated surface of scintillator-coated flash plates (NEN, USA; #SMP-103). This phosphorylation is measured by counting the plate for 60 sec. using a plate reader (Wallac Microbeta; Perkin Elmer, USA). The analysis of the data is performed using a biostatistical program (GraphPad Prism, USA).

For `CC(C)(N)c1ccc(C(=O)Nc2ccc(Nc3cc(-c4cccc5c4oc4ccccc45)ncn3)cc2)cc1` [Compound 69, 4-(1-Amino-1-methyl-ethyl)-N-[4-(6-dibenzofuran-4-yl-pyrimidin-4-ylamino)-phenyl]-benzamide trifluoracetate], the IC50 [1] was 10 µM and the IC50 [2] was ≤ 1.75 µM.
